Patent US11814368B2, “Triazine derivatives having virus replication inhibitory activity and pharmaceutical composition comprising the same” (priority 2021, dated 2023)
pEC50: −log10 of the molar value.

System: SARS-CoV-2
Test: microbe, parasite or virus in culture
Assay type: cell-based
Conditions: for pEC50: Severe acute respiratory syndrome coronavirus 2, 72 h, read-out: 50% SARS-CoV-2 infected cell death inhibitory concentration (EC50), VeroE6/TMPRSS2 cells, SARS-CoV-2, 3 days culture, CellTiter-Glo 2.0; for coronavirus replication inhibitory activity: at concentrations up to 50 µM

Row | Structure (SMILES) | pEC50 | coronavirus replication inhibitory activity
1 | Cc1nc2ccc(/N=c3\[nH]c(=O)n(C[C@H]4COC(C)(C)O4)c(=O)n3Cc3ccc(Cl)cc3)cc2s1 [Patent Document 1 Compound 1-1603] | < 4.30 | did not show coronavirus replication inhibitory activity
2 | CC(C)Oc1ccc(/N=c2\[nH]c(=O)n(Cc3ncn[nH]3)c(=O)n2Cc2ccc(Cl)cc2)cc1F [Patent Document 1 Compound I-0679] | < 4.30 | did not show coronavirus replication inhibitory activity
3 | COc1ncccc1Cn1c(=O)[nH]/c(=N\c2ccc(OC(C)C)c(F)c2)n(Cc2ccc(Cl)cc2)c1=O [Patent Document 1 Compound I-0683] | < 4.30 | did not show coronavirus replication inhibitory activity
4 | CC(C)Oc1ccc(/N=c2\[nH]c(=O)n(Cc3ccc[nH]c3=O)c(=O)n2Cc2ccc(Cl)cc2)cc1F [Patent Document 1 Compound I-0685] | < 4.30 | did not show coronavirus replication inhibitory activity
5 | O=C(O)c1ccc(Oc2ccc(/N=c3\[nH]c(=O)n(-c4cccs4)c(=O)n3Cc3ccc(Cl)cc3)cc2)nc1 [Patent Document 2 Compound I-575] | < 4.30 | did not show coronavirus replication inhibitory activity
6 | O=C(O)c1ccc(Oc2ccc(/N=c3\[nH]c(=O)n(-c4ccon4)c(=O)n3Cc3ccc(Cl)cc3)cc2)nc1 [Patent Document 2 Compound I-580] | < 4.30 | did not show coronavirus replication inhibitory activity
7 | Cc1ccc(Cn2c(=O)nc(Nc3cccc(C(F)(F)F)c3)n(Cc3ccc(Cl)c(Cl)c3)c2=O)cc1 [Patent Document 3 Compound 1-066] | < 4.30 | did not show coronavirus replication inhibitory activity
